Test results from patent publication US6777422B2, “Substituted tetrahydroisoquinolines as C5a receptor modulators” (Neurogen Corp., priority 2002, dated 2004).
pKi: −log10 of the molar value.

What follows are molecules tested against T1, human C5a receptor (Homo sapiens, UniProt P21730) (assay: C5a receptor mediated calcium mobilization assay (Example 20)). Conditions: differentiated U937 cells, read-out: Ca2+ (Ki in the standard assay of C5a receptor mediated calcium mobilization).
T1 construct: endogenous in cells; host or cells: U937 cells differentiated with 1 mM dibutyryl cAMP
T1 sequence (P21730 1-350): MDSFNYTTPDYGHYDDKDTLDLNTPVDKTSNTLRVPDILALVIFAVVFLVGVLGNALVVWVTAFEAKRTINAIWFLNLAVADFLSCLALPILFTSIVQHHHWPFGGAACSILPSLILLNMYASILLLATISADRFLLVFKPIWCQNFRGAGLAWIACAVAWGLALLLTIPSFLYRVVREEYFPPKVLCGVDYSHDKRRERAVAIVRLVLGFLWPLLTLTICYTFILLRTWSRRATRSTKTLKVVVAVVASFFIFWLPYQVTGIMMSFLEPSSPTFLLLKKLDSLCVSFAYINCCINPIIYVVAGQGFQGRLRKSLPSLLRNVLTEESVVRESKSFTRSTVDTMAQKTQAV
Assay type: cell-based
Protocol: Calcium Mobilization Assays
U937 cells are grown in differentiation media (1 mM dibutyryl cAMP in RPMI 1640 medium containing 10% fetal bovine serum) for 48 hrs at 37° C. then reseeded onto 96-well plates suitable for use in a FLIPR™ Plate Reader (Molecular Devices Corp., Sunnyvale Calif.). Cells are grown an additional 24 hours (to 70-90% confluence) before the assay. The cells are then washed once with Krebs Ringer solution. FLUO-3 calcium sensitive dye (Molecular Probes, Inc. Eugene, Oreg.) is added to 10 μg/mL and incubated with the cells at room temperature for 1 to 2 hours. The 96 well plates are then washed to remove excess dye. Fluorescence responses, measured by excitation at 480 nm and emission at 530 nm, are monitored upon the addition of human C5a to the cells to a final concentration of 0.01-30.0 nM, using the FLIPR™ device (Molecular Devices).
C. Assays for the Identification of Receptor Modulatory Agents: Antagonists and Agonists
The calcium mobilization assay described above may be readily adapted for identifying test compounds that have agonist or antagonist activity at the human C5a receptor.
For example, in order to identify antagonist compounds, differentiated U937 cells are washed and incubated with Fluo-3 dye as described above. One hour prior to measuring the fluorescence signal, a subset of the cells is incubated with 1 μM of at least one compound to be tested. The fluorescence response upon the subsequent addition of 0.3 nM (final concentration) human recombinant C5a is monitored using the FLIPR™ plate reader. Antagonist compounds elicit at least a 2-fold decrease in the fluorescence response relative to that measured in the presence of human C5a alone. Preferred antagonist compounds elicit at least a 5-fold, preferably at least a 10-fold, and more preferably at least a 20-fold decrease in the fluorescence response relative to that measured in the presence of human C5a alone.

Row | SMILES | pKi
1 | C[C@@H](C(=O)N(Cc1ccccc1F)C1Cc2ccccc2C1)N1CCc2ccccc2[C@@H]1c1cccc2c1OCC2 [Compound 75, (2S)-2-[(1R)-1-(2,3-dihydro-1-benzofuran-7-yl)-3,4-dihydroisoquinolin-2(1H)-yl]-N-(indan-2-yl)-N-(2-fluorobenzyl)propanamide] | > 6.00
2 | COC(=O)c1ccc(C2c3ccccc3CCN2CC(=O)N(Cc2ccccc2F)C2Cc3ccccc3C2)cc1 (stereo not drawn) [Compound 76, methyl 4-(2-{2-[indan-2-yl(2-fluorobenzyl)amino]-2-oxoethyl}-1,2,3,4-tetrahydroisoquinolin-1-yl)benzoate] | > 6.00
3 | C[C@@H](C(=O)N(Cc1ccccc1)Cc1ccc(O)cc1Cl)N1CCc2ccccc2[C@@H]1c1ccccc1Br [Compound 77, (2S)-N-benzyl-2-[(1R)-1-(2-bromophenyl)-3,4-dihydroisoquinolin-2(1H)-yl]-N-(2-chloro-4-hydroxybenzyl)propanamide] | > 6.00
4 | COc1cccc(CN(C(=O)CN2CCc3ccccc3C2c2ccccc2C)C2Cc3ccccc3C2)c1 (stereo not drawn) [Compound 79, N-(indan-2-yl)-N-(3-methoxybenzyl)-2-[1-(2-methylphenyl)-3,4-dihydroisoquinolin-2(1H)-yl]acetamide] | > 6.00
5 | Cc1cc(C)c(C2c3ccccc3CCN2CC(=O)N(Cc2ccccc2F)C2Cc3ccccc3C2)c(C)c1 (stereo not drawn) [Compound 80, N-(indan-2-yl)-N-(2-fluorobenzyl)-2-(1-mesityl-3,4-dihydroisoquinolin-2(1H)-yl)acetamide] | > 6.00
6 | O=C(CN1CCc2ccccc2C1c1c(F)cccc1F)N(Cc1ccccc1F)C1Cc2ccccc2C1 (stereo not drawn) [Compound 81, 2-[1-(2,6-difluorophenyl)-3,4-dihydroisoquinolin-2(1H)-yl]-N-(indan-2-yl)-N-(2-fluorobenzyl)acetamide] | > 6.00
7 | Cc1ccccc1C1c2ccccc2CCN1CC(=O)N(Cc1ccccc1F)c1ccccc1 (stereo not drawn) [Compound 82, N-(2-fluorobenzyl)-2-[1-(2-methylphenyl)-3,4-dihydroisoquinolin-2(1H)-yl]-N-phenylacetamide] | > 6.00
8 | Cc1ccc2ccccc2c1C1c2ccccc2CCN1CC(=O)N(Cc1ccccc1F)C1Cc2ccccc2C1 (stereo not drawn) [Compound 83, N-(indan-2-yl)-N-(2-fluorobenzyl)-2-[1-(2-methyl-1-naphthyl)-3,4-dihydroisoquinolin-2(1H)-yl]acetamide] | > 6.00
9 | Cc1ccc(Cl)c([C@H]2c3ccccc3CCN2[C@@H](C)C(=O)N(Cc2ccccc2F)C2Cc3ccccc3C2)c1 [Compound 84, (2S)-2-[(1R)-1-(2-chloro-5-methylphenyl)-3,4-dihydroisoquinolin-2(1H)-yl]-N-(indan-2-yl)-N-(2-fluorobenzyl)propanamide] | > 6.00
10 | Cc1ccc(C)c([C@H]2c3ccccc3CCN2[C@@H](C)C(=O)N(Cc2ccccc2F)C2Cc3ccccc3C2)c1 [Compound 85, (2S)-N-(indan-2-yl)-2-[(1S)-1-(2,5-dimethylphenyl)-3,4-dihydroisoquinolin-2(1H)-yl]-N-(2-fluorobenzyl)propanamide] | > 6.00
11 | Cc1ccc(F)c([C@H]2c3ccccc3CCN2[C@@H](C)C(=O)N(Cc2ccccc2F)C2Cc3ccccc3C2)c1 [Compound 86, (2S)-N-(indan-2-yl)-N-(2-fluorobenzyl)-2-[(1R)-1-(2-fluoro-5-methylphenyl)-3,4-dihydroisoquinolin-2(1H)-yl]propanamide] | > 6.00
12 | C[C@@H](C(=O)N(Cc1ccccc1F)Cc1ccccc1F)N1CCc2ccccc2[C@@H]1c1ccccc1Cl [Compound 87, (2S)-2-[(1R)-1-(2-chlorophenyl)-3,4-dihydroisoquinolin-2(1H)-yl]-N,N-bis(2-fluorobenzyl)propanamide] | > 6.00
13 | Cc1ccccc1C1c2ccccc2CCN1CC(=O)N(Cc1ccc(C(=O)O)cc1)C1Cc2ccccc2C1 (stereo not drawn) [Compound 88, 4-[(indan-2-yl{[1-(2-methylphenyl)-3,4-dihydroisoquinolin-2(1H)-yl]acetyl}amino)methyl] benzoic acid] | > 6.00
14 | C[C@@H](C(=O)N(Cc1ccccc1F)C1Cc2ccccc2C1)N1CCc2ccccc2[C@@H]1c1c(F)cccc1F [Compound 89, (2S)-2-[(1R)-1(2,6-difluorophenyl)-3,4-dihydroisoquinolin-2(1H)-yl]-N-(indan-2-yl)-N-(2-fluorobenzyl)propanamide] | > 6.00
15 | C[C@@H](C(=O)N(Cc1ccccc1O)C1Cc2ccccc2C1)N1CCc2ccccc2[C@@H]1c1ccccc1Cl [Compound 90, (2S)-2-[(1R)-1-(2-chlorophenyl)-3,4-dihydroisoquinolin-2(1H)-yl]-N-(indan-2-yl)-N-(2-hydroxybenzyl)propanamide] | > 6.00
16 | C[C@@H](C(=O)N(CCc1ccccc1)Cc1ccccc1F)N1CCc2ccccc2[C@@H]1c1ccccc1Cl [Compound 91, (2S)-2-[(1R)-1-(2-chlorophenyl)-3,4-dihydroisoquinolin-2(1H)-yl]-N-(2-fluorobenzyl)-N-(2-phenylethyl)propanamide] | > 6.00
17 | COc1ccc2c(c1)CC(N(Cc1ccccc1F)C(=O)CN1CCc3ccccc3C1c1ccccc1Cl)C2 (stereo not drawn) [Compound 93, 2-[1-(2-chlorophenyl)-3,4-dihydroisoquinolin-2(1H)-yl]-N-(2-fluorobenzyl)-N-(5-methoxy-indan-2-yl)acetamide] | > 6.00
18 | COc1ccc2c(c1)CC(N(Cc1ccccc1F)C(=O)CN1CCc3ccccc3C1c1ccccc1C(F)(F)F)C2 (stereo not drawn) [Compound 94, N-(2-fluorobenzyl)-N-(5-methoxy-indan-2-yl)-2-[1-[2-(trifluoromethyl)phenyl]-3,4-dihydroisoquinolin-2(1H)-yl]acetamide] | > 6.00
19 | O=C(CN1CCc2ccccc2C1c1c(Cl)cccc1Cl)N(Cc1ccccc1F)C1Cc2ccccc2C1 (stereo not drawn) [Compound 95, 2-[1-(2,6-dichlorophenyl)-3,4-dihydroisoquinolin-2(1H)-yl]-N-(indan-2-yl)-N-(2-fluorobenzyl)acetamide] | > 6.00
20 | O=C(CN1CCc2ccccc2C1c1c(F)cccc1Cl)N(Cc1ccccc1F)C1Cc2ccccc2C1 (stereo not drawn) [Compound 96, 2-[1-(2-chloro-6-fluorophenyl)-3,4-dihydroisoquinolin-2(1H)-yl]-N-(indan-2-yl)-N-(2-fluorobenzyl)acetamide] | > 6.00
21 | C[C@@H](C(=O)N(Cc1c[nH]cn1)C1Cc2ccccc2C1)N1CCc2ccccc2[C@@H]1c1ccccc1Cl [Compound 97, (2S)-2-[(1R)-1-(2-chlorophenyl)-3,4-dihydroisoquinolin-2(1H)-yl]-N-(indan-2-yl)-N-(1H-imidazol-4-ylmethyl)propanamide] | > 6.00
22 | C[C@@H](C(=O)N(Cc1cccc(C(=O)O)c1)C1Cc2ccccc2C1)N1CCc2ccccc2[C@@H]1c1ccccc1Cl [Compound 98, 3{[{(2S)-2-[(1R)-1-(2-chlorophenyl)-3,4-dihydroisoquinolin-2(1H)-yl]propanoyl}(indan-2-yl)amino]methyl}benzoic acid] | > 6.00
23 | O=C(CN1CCc2ccccc2C1c1c(F)cccc1C(F)(F)F)N(Cc1ccccc1F)C1Cc2ccccc2C1 (stereo not drawn) [Compound 99, N-(indan-2-yl)-N-(2-fluorobenzyl)-2-[1-[2-fluoro-6-(trifluoromethyl)phenyl]-3,4-dihydroisoquinolin-2(1H)-yl]acetamide] | > 6.00
24 | Cc1ccccc1C1c2c(F)cccc2CCN1CC(=O)N(Cc1ccccc1F)C1Cc2ccccc2C1 (stereo not drawn) [Compound 100, N-(indan-2-yl)-N-(2-fluorobenzyl)-2-[8-fluoro-1-(2-methylphenyl)-3,4-dihydroisoquinolin-2(1H)-yl]acetamide] | > 6.00
25 | Cc1ccccc1C1c2ccccc2CCN1CC(=O)N(Cc1cc(O)ccc1F)C1Cc2ccccc2C1 (stereo not drawn) [Compound 101, N-(indan-2-yl)-N-(2-fluoro-5-hydroxybenzyl)-2-[1-(2-methylphenyl)-3,4-dihydroisoquinolin-2(1H)-yl]acetamide] | > 6.00
26 | C[C@@H](C(=O)N(Cc1ccccc1F)C1Cc2ccccc2C1)N1CCc2ccccc2[C@@H]1c1c(Cl)cccc1Cl [Compound 102, (2S)-2-[(1R)-1-(2,6-dichlorophenyl)-3,4-dihydroisoquinolin-2(1H)-yl]-N-(indan-2-yl)-N-(2-fluorobenzyl)propanamide] | > 6.00
27 | C[C@@H](C(=O)N(Cc1ccccc1F)C1Cc2ccccc2C1)N1CCc2ccccc2[C@@H]1c1c(F)cccc1Cl [Compound 103, (2S)-2-[(1R)-1-(2-chloro-6-fluorophenyl)-3,4-dihydroisoquinolin-2(1H)-yl]-N-(indan-2-yl)-N-(2-fluorobenzyl)propanamide] | > 6.00
